Values of other authors in PMC9851200, “Multiparameter phenotypic screening for endogenous TFEB and TFE3 translocation identifies novel chemical series modulating lysosome function” (Autophagy, 2022).

What was measured:
Set-up in all cases: method as in original PKIS2 published data
[1] = target: T1, kinases (KINOMEscan panel) (Homo sapiens, UniProt O15111); conditions: cited from earlier work
T1 sequence (O15111 1-745): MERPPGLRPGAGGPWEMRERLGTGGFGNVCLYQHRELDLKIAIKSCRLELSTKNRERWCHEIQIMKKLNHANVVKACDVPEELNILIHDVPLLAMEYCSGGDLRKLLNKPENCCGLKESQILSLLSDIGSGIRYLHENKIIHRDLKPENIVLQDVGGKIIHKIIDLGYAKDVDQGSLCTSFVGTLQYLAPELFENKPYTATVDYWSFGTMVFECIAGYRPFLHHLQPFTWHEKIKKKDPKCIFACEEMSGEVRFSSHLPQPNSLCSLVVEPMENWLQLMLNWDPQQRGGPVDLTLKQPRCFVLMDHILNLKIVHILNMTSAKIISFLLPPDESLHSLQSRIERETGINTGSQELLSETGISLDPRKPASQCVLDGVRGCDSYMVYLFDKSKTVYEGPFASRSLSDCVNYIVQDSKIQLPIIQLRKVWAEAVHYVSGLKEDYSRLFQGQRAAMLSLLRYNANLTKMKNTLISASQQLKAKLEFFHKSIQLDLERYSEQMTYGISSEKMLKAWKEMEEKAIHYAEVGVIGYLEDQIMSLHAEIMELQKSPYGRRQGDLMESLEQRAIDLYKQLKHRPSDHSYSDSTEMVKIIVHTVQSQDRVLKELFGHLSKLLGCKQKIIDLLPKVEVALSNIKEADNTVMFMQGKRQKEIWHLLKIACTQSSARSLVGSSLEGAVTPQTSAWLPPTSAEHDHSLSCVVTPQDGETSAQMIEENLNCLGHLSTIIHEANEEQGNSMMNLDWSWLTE

[2] = target: kinases (KINOMEscan panel) (Homo sapiens, UniProt Q9BYP7); conditions: Published KINOMEscan; ref original PKIS2 published data; cited from earlier work
[3] = target: T2, kinases (KINOMEscan panel) (Homo sapiens, UniProt P51956); conditions: kinase NEK3; Published KINOMEscan; ref original PKIS2 published data; cited from earlier work
T2 sequence (P51956 1-506): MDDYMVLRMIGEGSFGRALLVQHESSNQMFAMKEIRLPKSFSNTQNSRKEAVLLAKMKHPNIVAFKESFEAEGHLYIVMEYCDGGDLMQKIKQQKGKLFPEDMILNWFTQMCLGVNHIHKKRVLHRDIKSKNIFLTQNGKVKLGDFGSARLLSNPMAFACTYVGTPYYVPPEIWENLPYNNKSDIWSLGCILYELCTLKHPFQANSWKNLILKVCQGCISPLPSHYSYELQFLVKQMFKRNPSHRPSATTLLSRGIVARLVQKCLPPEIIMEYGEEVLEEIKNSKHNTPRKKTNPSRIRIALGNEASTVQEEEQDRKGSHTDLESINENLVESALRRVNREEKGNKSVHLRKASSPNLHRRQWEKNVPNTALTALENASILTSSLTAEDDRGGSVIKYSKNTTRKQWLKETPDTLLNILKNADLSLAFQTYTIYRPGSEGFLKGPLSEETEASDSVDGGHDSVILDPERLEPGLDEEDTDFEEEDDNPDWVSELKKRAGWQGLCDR

[4] = target: T3, kinases (KINOMEscan panel) (Homo sapiens, UniProt Q9UQ88); conditions: Published KINOMEscan; ref original PKIS2 published data; cited from earlier work
T3 sequence (Q9UQ88 1-783): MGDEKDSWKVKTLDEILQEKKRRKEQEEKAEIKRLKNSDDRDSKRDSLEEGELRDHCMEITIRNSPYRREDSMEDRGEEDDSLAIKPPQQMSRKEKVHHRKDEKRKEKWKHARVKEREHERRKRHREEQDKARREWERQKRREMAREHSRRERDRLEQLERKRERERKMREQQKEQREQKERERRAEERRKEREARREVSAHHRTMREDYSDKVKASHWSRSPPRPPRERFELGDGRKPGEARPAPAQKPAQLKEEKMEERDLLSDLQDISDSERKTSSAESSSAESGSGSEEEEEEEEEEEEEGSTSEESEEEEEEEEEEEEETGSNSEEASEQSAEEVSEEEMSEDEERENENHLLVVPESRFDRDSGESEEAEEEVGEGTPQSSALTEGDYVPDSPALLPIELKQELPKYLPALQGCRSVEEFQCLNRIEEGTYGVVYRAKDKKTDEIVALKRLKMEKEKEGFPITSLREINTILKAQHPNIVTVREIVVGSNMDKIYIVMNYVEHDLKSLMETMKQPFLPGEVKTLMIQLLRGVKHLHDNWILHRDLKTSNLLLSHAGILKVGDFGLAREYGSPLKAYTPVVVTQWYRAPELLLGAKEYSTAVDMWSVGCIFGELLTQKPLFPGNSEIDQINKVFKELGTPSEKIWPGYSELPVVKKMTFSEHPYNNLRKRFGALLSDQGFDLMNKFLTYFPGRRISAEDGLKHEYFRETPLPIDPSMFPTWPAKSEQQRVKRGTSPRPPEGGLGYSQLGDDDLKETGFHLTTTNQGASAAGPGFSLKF

Sequence of kinases (KINOMEscan panel) (Homo sapiens, UniProt Q9BYP7) (Q9BYP7 whole entry): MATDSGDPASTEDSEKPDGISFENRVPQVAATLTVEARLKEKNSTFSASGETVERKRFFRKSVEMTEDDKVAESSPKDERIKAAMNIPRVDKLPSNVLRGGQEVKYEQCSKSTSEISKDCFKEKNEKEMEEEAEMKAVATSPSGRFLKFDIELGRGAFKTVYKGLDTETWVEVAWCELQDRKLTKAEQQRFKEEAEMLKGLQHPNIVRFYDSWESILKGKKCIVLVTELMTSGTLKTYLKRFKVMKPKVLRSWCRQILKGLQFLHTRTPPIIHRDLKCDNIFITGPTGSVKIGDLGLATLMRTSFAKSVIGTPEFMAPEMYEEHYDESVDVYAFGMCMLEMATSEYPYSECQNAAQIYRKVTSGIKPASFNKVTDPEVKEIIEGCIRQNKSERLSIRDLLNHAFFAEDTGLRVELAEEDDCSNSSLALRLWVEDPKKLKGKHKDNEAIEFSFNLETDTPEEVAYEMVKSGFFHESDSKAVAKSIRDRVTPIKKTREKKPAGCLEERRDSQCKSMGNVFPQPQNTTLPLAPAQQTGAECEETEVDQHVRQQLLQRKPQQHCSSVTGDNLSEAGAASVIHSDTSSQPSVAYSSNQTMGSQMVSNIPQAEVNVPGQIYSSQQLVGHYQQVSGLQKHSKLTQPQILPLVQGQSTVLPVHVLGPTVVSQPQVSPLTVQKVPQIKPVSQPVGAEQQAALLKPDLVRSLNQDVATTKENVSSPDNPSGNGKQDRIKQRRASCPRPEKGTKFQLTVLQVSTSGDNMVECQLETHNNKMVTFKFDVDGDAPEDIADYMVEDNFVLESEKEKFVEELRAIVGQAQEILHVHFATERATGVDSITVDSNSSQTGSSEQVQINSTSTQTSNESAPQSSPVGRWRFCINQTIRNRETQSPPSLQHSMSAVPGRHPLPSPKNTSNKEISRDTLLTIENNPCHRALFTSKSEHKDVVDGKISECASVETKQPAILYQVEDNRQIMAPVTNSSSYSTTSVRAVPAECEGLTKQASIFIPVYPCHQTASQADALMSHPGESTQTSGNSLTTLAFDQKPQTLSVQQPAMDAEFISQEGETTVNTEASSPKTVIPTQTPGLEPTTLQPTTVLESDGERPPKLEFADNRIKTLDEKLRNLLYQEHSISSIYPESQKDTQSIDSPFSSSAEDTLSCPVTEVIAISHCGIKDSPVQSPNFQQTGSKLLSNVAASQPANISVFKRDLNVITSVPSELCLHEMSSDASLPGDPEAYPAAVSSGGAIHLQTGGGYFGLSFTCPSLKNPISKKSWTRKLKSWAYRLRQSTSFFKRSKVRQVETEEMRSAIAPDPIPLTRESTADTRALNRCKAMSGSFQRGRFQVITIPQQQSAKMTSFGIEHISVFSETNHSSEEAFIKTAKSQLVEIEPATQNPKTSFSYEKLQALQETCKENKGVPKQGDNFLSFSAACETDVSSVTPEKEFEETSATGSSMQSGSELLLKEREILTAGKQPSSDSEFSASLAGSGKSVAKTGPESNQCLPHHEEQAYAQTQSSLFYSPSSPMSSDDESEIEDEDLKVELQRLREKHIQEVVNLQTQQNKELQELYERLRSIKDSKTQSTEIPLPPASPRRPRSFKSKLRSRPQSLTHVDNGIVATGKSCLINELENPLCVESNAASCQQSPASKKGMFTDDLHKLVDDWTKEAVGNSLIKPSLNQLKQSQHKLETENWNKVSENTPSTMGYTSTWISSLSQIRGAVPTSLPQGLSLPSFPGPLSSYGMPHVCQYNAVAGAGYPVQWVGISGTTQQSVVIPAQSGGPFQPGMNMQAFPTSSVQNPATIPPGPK

Compound: Cc1cccc(-c2nc(Nc3ccncc3)c3ccccc3n2)n1 [NK215]
- KINOMEscan CHUK/IKK-alpha [1]: 0
- KINOMEscan WNK3 [2]: 0
- KINOMEscan NEK3 [3]: 30
- KINOMEscan CDK11A [4]: 0
